Laboratory results reported in PubChem BioAssay (NCI).
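Briefly, cells in 96-well plates were exposed to five compound concentrations for 48 h, and endpoints were estimated by linear interpolation. The concentration for 50% growth inhibition is given as GI50. Definition used: TGI = concentration required for complete inhibition of growth.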

What was measured:
Assay in all cases: NCI tumour cell line growth inhibition, 48 h
HCC-2998 colon = test system: HCC-2998 colon
786-0 renal = test system: 786-0 renal
SF-295 CNS = test system: SF-295 CNS
MDA-MB-435 = test system: MDA-MB-435
SN12C renal = test system: SN12C renal
HCT-116 colon = test system: HCT-116 colon
NCI-H226 lung = test system: NCI-H226 lung
HL-60(TB) leukemia = test system: HL-60(TB) leukemia
SK-MEL-28 melanoma = test system: SK-MEL-28 melanoma
COLO 205 colon = test system: COLO 205 colon

Compound	TGI (HCC-2998 colon)	TGI (786-0 renal)	TGI (SF-295 CNS)	TGI (MDA-MB-435)	TGI (SN12C renal)	TGI (HCT-116 colon)	TGI (NCI-H226 lung)	TGI (HL-60(TB) leukemia)	TGI (SK-MEL-28 melanoma)	TGI (COLO 205 colon)	GI50 (HCC-2998 colon)	GI50 (SF-295 CNS)	GI50 (MDA-MB-435)	GI50 (SN12C renal)	GI50 (HCT-116 colon)	GI50 (NCI-H226 lung)	GI50 (HL-60(TB) leukemia)	GI50 (SK-MEL-28 melanoma)	GI50 (COLO 205 colon)
COc1cc(/C=C/C(=N\NC(N)=S)c2sc(NNC(C)=O)nc2C)ccc1O	> 100 µM	> 100 µM	> 100 µM	> 100 µM	> 100 µM	> 100 µM	> 100 µM	> 100 µM	> 100 µM	> 100 µM									
O=C(O)c1nn(-c2ccccc2)nc1-c1nn(-c2ccccc2)nc1C(=O)O	> 100 µM	> 100 µM	> 100 µM	> 100 µM	> 100 µM	> 100 µM	> 100 µM	> 100 µM	> 100 µM	> 100 µM									
CCOC(=O)NN(C(=O)OCC)C(C(=O)c1ccccc1)N(NC(=O)OCC)C(=O)OCC	> 100 µM	> 100 µM	> 100 µM	> 100 µM	> 100 µM	> 100 µM	> 100 µM	> 100 µM	> 100 µM	> 100 µM									
C(=N\NC1=NCCN1)/c1ccc2ccccc2c1	31.2 µM	26.3 µM	29.9 µM	31.3 µM	35.4 µM	28.9 µM	51.2 µM	34.5 µM	28.7 µM	20.4 µM									
C/C(=N\NC(N)=S)c1nc2ncccc2[nH]1	> 100 µM	> 100 µM	> 100 µM	> 100 µM	> 100 µM	> 100 µM	> 91.4 µM	> 79.1 µM	> 100 µM	> 100 µM									
COc1ccc(Nc2nc(N)c(C(=O)c3ccc(Cl)cc3)s2)cc1	3.47 µM	11.2 µM	15.1 µM	< 0.01 µM	22.3 µM	6.64 µM	0.117 µM	< 0.0331 µM	> 100 µM	0.117 µM									
CC(NNC(=O)c1ccncc1)c1cccc(C(F)(F)F)c1 (centres undefined)	> 100 µM	> 100 µM	> 100 µM	> 100 µM	> 100 µM	> 100 µM	> 100 µM	> 100 µM	> 100 µM	> 100 µM									
COC(=O)c1c2c(cc3c1CC1(Cc4ccccc4C1)C3)CCC2	98.7 µM	> 100 µM	61.7 µM	39.1 µM	95.8 µM	84.4 µM	> 100 µM	69.5 µM	> 100 µM	42.1 µM									
CCCCCCCCCCCCOC1C(COCCN2CCCCC2)OC2OC(C)(C)OC21 (centres undefined)	3.01 µM	3.11 µM	3.15 µM	3.17 µM	4.72 µM	3.07 µM	17.6 µM	3.02 µM	3.25 µM	3.03 µM									
O=c1[nH]cnc2c1cnn2Cc1cnnn1COCCO	> 100 µM	> 100 µM	> 100 µM	90.5 µM	> 100 µM	> 100 µM	> 100 µM	> 100 µM	> 100 µM	> 100 µM									
CCNC(=S)NNC(=O)c1ccccc1Nc1ccccc1C(=O)NNC(=S)NCC	> 100 µM	> 100 µM	> 100 µM	> 100 µM	> 100 µM	> 100 µM	> 100 µM	> 100 µM	> 100 µM	> 100 µM									
NC1=Nc2ccccc2Sc2cccc(F)c21	> 100 µM	> 100 µM	> 100 µM	> 100 µM	> 100 µM	> 100 µM	> 100 µM	88 µM	> 100 µM	> 100 µM									
CNC(=O)CNC(=O)N(C[C@@H]1CCCN1C(=O)[C@H](CC(C)C)NC(=O)OC(C)(C)C)C(C)C	> 100 µM	> 100 µM	> 100 µM	> 100 µM	> 100 µM	> 100 µM	> 100 µM	> 100 µM	> 100 µM	> 100 µM									
COc1cc(S(=O)(=O)Nc2ccc(-c3csc(N4C(=O)CSC4c4ccccc4O)n3)cc2)ccc1Cl (centres undefined)	41.4 µM	> 100 µM	> 100 µM	> 100 µM	> 100 µM	> 100 µM	> 100 µM	49.8 µM	88.2 µM	61.1 µM									
Cc1nc2ccc(NC3OCC(O)C(O)C3O)cc2c(=O)n1-c1ccccc1 (centres undefined)	> 100 µM	> 100 µM	> 100 µM	> 100 µM	> 100 µM	> 100 µM	> 100 µM	> 100 µM	> 100 µM	> 100 µM									
CN(C)CCCn1c(Cn2nc3ccccc3n2)nc2cc(C(F)(F)F)ccc21	21.2 µM	35.3 µM	> 100 µM	33 µM	> 100 µM	> 100 µM	> 100 µM	16.5 µM	34.6 µM	28.6 µM									
COc1ccc([I+]c2ccc(OC)cc2)cc1	> 100 µM	> 100 µM	> 100 µM	> 100 µM	> 100 µM	> 100 µM	> 100 µM	> 100 µM	> 100 µM	> 100 µM	16 µM	5.07 µM	14.7 µM	29.3 µM	2.83 µM	14.4 µM	6.4 µM	20.6 µM	9.34 µM
COC(=O)c1ccccc1C1CN=NC12Cc1ccc3c(c1C2=O)CCC3 (centres undefined)	> 100 µM	> 100 µM	> 100 µM	> 100 µM	> 100 µM	> 100 µM	> 100 µM	> 100 µM	> 100 µM	> 100 µM									

Compound	TGI (HCC-2998 colon)	TGI (786-0 renal)	TGI (SF-295 CNS)	TGI (MDA-MB-435)	TGI (SN12C renal)	TGI (HCT-116 colon)	TGI (NCI-H226 lung)	TGI (HL-60(TB) leukemia)	TGI (SK-MEL-28 melanoma)	TGI (COLO 205 colon)	GI50 (HCC-2998 colon)	GI50 (SF-295 CNS)	GI50 (MDA-MB-435)	GI50 (SN12C renal)	GI50 (HCT-116 colon)	GI50 (NCI-H226 lung)	GI50 (HL-60(TB) leukemia)	GI50 (SK-MEL-28 melanoma)	GI50 (COLO 205 colon)
COc1ccc2c(c1)/c(=C/C#N)c1c3ccccc3[n+](C)n21	6.83 µM	> 70.1 µM	42.1 µM	19.3 µM	47.4 µM	12.5 µM	21.4 µM	> 48.3 µM	14.3 µM	8.33 µM									
Cc1cc(C)n(-c2nc(C)c(CCO)c(=O)[nH]2)n1	> 100 µM	> 100 µM	> 100 µM	> 100 µM	> 100 µM	> 100 µM	> 100 µM	> 100 µM	> 100 µM	> 100 µM									
Cc1ccnc(Nc2[nH]c(C(=O)c3ccc(Cl)cc3)c(N)c2C(=S)Nc2ccccc2)c1	29.7 µM	34.8 µM	36.8 µM	35.3 µM	31 µM	30 µM	45.6 µM	64.6 µM	35.9 µM	29.9 µM									
COc1ccc(/C=C/C(=O)c2ccc(Br)cc2)cc1	> 100 µM	> 100 µM	> 100 µM	> 100 µM	> 100 µM	> 100 µM	> 100 µM	> 100 µM	> 100 µM	> 100 µM									
COc1ccc(-c2oc3cc(O)c(OC)c(O)c3c(=O)c2O)cc1	> 60.2 µM	33.1 µM	53.6 µM	> 100 µM	> 75.2 µM	> 66.6 µM	24.4 µM	9.19 µM	> 100 µM	> 80.6 µM									
CC(=O)NC(C)(C)C1CCC(C)CC1 (centres undefined)	> 100 µM	> 100 µM	> 100 µM	> 100 µM	> 100 µM	> 100 µM	> 100 µM	> 100 µM	> 100 µM	> 100 µM									
O=c1c2c3c(sc2nc2n1NC=NN2)CCCC3	51.7 µM	31.9 µM	30.2 µM	26.4 µM	39.6 µM	32.4 µM	49.8 µM	7.34 µM	36.1 µM	55.3 µM									
CCOC(=O)c1nc2cc(Cl)ccc2[nH]c1=O	> 100 µM	> 100 µM	> 100 µM	> 100 µM	> 100 µM	> 100 µM	> 100 µM	> 100 µM	> 100 µM	> 100 µM									
COc1ccc(-c2nnc3n(C)c4ccccc4n3c2=O)cc1	> 100 µM	> 100 µM	84.3 µM	> 100 µM	> 100 µM	> 100 µM	> 100 µM	> 100 µM	> 100 µM	> 100 µM									
COc1ccccc1C(=O)OCC1CCCN2CCCCC12 (centres undefined)	42.2 µM	> 100 µM	> 100 µM	> 100 µM	96 µM	> 100 µM	> 100 µM	44.2 µM	65.7 µM	> 100 µM									
O=C(NC1=C(Cl)C(=O)c2ccccc2C1=O)C(=O)C(C(=O)c1ccc2ccccc2c1)C1OC(=O)c2ccccc21 (centres undefined)	22.7 µM	20.6 µM	14.9 µM	3.33 µM	16.3 µM	10.5 µM	7.09 µM	7.6 µM	14.5 µM	18.5 µM									
CN(C)CC1CCC/C(=C\c2ccc(OC(=O)/C=C/c3ccc(Cl)cc3)cc2)C1=O (centres undefined)	13.1 µM	3.05 µM	19.7 µM	21.1 µM	12.8 µM	11 µM	20.2 µM	3.22 µM	14.7 µM	2.79 µM									
C(=C/c1nnnn1-c1ccccc1)/Nc1ccccc1	97.7 µM	> 100 µM	85.3 µM	92.9 µM	> 100 µM	95.7 µM	61.6 µM	> 100 µM	> 100 µM	> 100 µM									
C=C1CCOC2(C(O)C(C)(O)CO)NC(=O)C1(O)NC2=O (centres undefined)	> 100 µM	> 100 µM	> 100 µM	> 100 µM	> 100 µM	> 100 µM	> 100 µM	> 100 µM	> 100 µM	> 100 µM									
Cc1cc(O)c2c(c1)C(C1c3cccc(O)c3C(=O)c3c(O)cc(C)cc31)c1cccc(O)c1C2=O (centres undefined)	16.6 µM	6.82 µM	4.31 µM	10.7 µM	3.23 µM	18.9 µM	2.24 µM	6.72 µM	12.6 µM	0.378 µM									
CCC(Nc1ncnc2nc[nH]c12)C(=O)O (centres undefined)	> 100 µM	> 100 µM	> 100 µM	> 100 µM	> 100 µM	> 100 µM	> 100 µM	> 100 µM	> 100 µM	> 100 µM									
CN(C)S(=O)(=O)c1nc(Cl)c2[nH]cnc2n1	> 100 µM	> 100 µM	> 100 µM	> 100 µM	> 100 µM	> 100 µM	> 100 µM	> 100 µM	> 100 µM	> 100 µM									
